Measured values as given in ChEMBL document CHEMBL1201862, “PubChem BioAssay data set” (2004).
Calls of active or inactive are those of the source.

Tests used:
[1] = target: FAD-linked sulfhydryl oxidase ALR (Homo sapiens, UniProt P55789); assay: ALR-catalysed DTT oxidation blockers – biochemical, H2O2 detection, luminescence, cherry-pick, dose response (AID 493248)
H4 = assay: Luminescence Cell-Based Dose Response HTS to Identify Activators of 5'UTR Stem-Loop Driven Prion Protein mRNA Translation in H4 Neuroglioblastoma Cells. [Related pubchem assays: 1829 (Project Summary), 1814 (Primary HTS)]; type: functional; conditions: Homo sapiens
[2] = Luminescence Cell-Based Dose Response HTS to Identify Activators of Luciferase Translation or Activity in H4 […] Cells. [Related pubchem assays: 1829 (Project Summary), 1814 (Primary HTS)]; type: functional
Vero = assay: cells; type: functional; conditions: Chlorocebus sabaeus
[3] = Trypanosoma cruzi growth suppression in host cells – NIH3T3 host cells, beta-gal luminescence, confirmation (AID 2044); type: functional, cell-based;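 note: intracellular parasites grown in NIH/3T3 mouse fibroblasts as host cells; luminescent beta-galactosidase reporter signal from transgenic T. cruzi replicating inside host cells; inhibitors lower the luminescence signal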
[4] = target: T1, Corticotropin-releasing factor receptor 2/Corticotropin-releasing factor-binding protein (Homo sapiens, UniProt P24387+Q13324); assay: activators of CRF receptor 2 with binding protein – uHTS hits, confirmation (AID 602473); type: functional; conditions: read-out: EC50_Mean
T1 sequence (Q13324 whole entry): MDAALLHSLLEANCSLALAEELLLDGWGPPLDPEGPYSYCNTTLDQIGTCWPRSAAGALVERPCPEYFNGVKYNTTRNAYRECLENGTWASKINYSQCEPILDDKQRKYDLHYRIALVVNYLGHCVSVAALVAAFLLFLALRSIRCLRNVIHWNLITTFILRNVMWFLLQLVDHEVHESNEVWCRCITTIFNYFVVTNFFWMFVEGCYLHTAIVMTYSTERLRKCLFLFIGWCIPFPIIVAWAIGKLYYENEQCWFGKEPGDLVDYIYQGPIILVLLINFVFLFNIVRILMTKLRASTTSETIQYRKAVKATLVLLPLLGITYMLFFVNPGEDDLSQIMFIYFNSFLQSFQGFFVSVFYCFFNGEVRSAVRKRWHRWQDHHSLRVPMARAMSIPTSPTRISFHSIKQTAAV
T1 sequence (P24387 whole entry): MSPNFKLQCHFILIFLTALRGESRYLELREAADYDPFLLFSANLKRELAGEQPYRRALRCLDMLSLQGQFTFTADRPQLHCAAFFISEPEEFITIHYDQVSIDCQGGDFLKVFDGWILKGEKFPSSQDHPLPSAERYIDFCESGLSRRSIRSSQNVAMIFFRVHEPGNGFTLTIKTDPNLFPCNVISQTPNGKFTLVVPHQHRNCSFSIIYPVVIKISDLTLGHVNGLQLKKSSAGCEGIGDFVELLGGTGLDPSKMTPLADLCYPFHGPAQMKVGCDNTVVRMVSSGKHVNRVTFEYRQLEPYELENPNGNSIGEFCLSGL

[5] = NIH3T3 cell viability loss – ATP luminescence, mouse fibroblasts, counter-screen, dose response (AID 2010); type: functional, cell-based;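 note: cells exposed to compound for about 90 hours before reading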
[6] = target: T1, Corticotropin-releasing factor receptor 2/Corticotropin-releasing factor-binding protein; assay: Dose Response confirmation of uHTS hits for small molecule antagonists of the CRF-binding protein and CRF-R2 receptor complex.; type: functional; conditions: read-out: IC50_Mean
[7] = target: T2, Ubiquitin-conjugating enzyme E2 N (Homo sapiens, UniProt P61088); type: functional;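 note: Dose-response confirmation in a TR-FRET assay detecting UBC13-driven polyubiquitin chain formation, inhibition measured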
T2 sequence (P61088 whole entry): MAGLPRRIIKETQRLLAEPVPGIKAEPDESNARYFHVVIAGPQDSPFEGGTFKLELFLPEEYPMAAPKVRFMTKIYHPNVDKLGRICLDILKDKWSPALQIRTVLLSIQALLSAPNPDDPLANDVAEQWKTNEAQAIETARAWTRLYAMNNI

[8] = viability of HCT116 lacking mutant beta-catenin – cell-based, human colon tumor, dose response (AID 1045); type: functional;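 note: HCT116 colon tumor cells with beta catenin knocked out; cells exposed to compound for 60 hours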
[9] = Luminescence Cell-Based Dose Retest to Confirm Inhibitors of Cancer Stem Cells. [Related pubchem assays (depositor defined):AID2717, AID2721]; type: functional; conditions: Homo sapiens
[10] = system: Streptococcus sp. 'group A'; assay: Streptococcus pyogenes SK(-)GAS viability under kanamycin – luminescence, BacTiterGlo, confirmation, counter-screen for streptokinase expression inhibitor project, dose response (AID 1900); type: functional, organism-based
Streptococcus = assay: GAS UMAA2166 growth inhibition – luminescence, BacTiterGlo, counter-screen for streptokinase expression inhibitor project, dose response (AID 1915); type: functional, organism-based;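 note: potency for reduction of bacterial viability or growth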
Streptokinase A = target: T3, Streptokinase A (Streptococcus pyogenes serotype M1, UniProt P10520); assay: viability-normalized secreted streptokinase activity reduction – plasminogen activation absorbance, OD405, dose response (AID 1914); type: functional, Streptococcus pyogenes M1 GAS;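 note: secreted streptokinase activity via plasminogen activation per viability signal from cell pellet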
T3 sequence (P10520 whole entry): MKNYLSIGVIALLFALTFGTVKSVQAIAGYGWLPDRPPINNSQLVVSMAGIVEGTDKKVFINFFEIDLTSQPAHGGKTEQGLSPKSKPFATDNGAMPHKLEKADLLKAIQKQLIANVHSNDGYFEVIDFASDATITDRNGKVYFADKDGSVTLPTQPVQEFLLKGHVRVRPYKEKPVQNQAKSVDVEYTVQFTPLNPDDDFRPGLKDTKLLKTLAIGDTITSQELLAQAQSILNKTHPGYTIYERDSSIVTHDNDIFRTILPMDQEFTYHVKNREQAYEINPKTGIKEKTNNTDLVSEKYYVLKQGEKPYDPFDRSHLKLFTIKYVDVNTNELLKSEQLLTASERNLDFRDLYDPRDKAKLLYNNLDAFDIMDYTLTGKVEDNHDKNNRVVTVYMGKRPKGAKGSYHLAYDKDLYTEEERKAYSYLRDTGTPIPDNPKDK

[11] = viability of PTEN-deleted HCT116 cells – cell-based, HCT116 PTEN knockout, dose response (AID 1047); type: functional;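 note: HCT116 colon tumor cells with PTEN knocked out; cells exposed to compound for 60 hours before readout; potency for loss of cell viability measured by luminescence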
[12] = NIH-3T3 fibroblast cytotoxicity, dose response, cytotoxicity control, cell-based, fluorescence, Alamar Blue, secondary assay (AID 2327); type: functional;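 note: NIH-3T3 mouse fibroblasts cultured with fluconazole at 8 µg/mL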
[13] = target: T4, Rac GTPase-activating protein 1 (Homo sapiens, UniProt Q9H0H5); assay: blockers of MgcRacGAP-driven Rac1 GTP hydrolysis – biochemical, ADP Hunter fluorescence, primary and confirmatory, confirmation (AID 624330); type: functional
T4 sequence (Q9H0H5 whole entry): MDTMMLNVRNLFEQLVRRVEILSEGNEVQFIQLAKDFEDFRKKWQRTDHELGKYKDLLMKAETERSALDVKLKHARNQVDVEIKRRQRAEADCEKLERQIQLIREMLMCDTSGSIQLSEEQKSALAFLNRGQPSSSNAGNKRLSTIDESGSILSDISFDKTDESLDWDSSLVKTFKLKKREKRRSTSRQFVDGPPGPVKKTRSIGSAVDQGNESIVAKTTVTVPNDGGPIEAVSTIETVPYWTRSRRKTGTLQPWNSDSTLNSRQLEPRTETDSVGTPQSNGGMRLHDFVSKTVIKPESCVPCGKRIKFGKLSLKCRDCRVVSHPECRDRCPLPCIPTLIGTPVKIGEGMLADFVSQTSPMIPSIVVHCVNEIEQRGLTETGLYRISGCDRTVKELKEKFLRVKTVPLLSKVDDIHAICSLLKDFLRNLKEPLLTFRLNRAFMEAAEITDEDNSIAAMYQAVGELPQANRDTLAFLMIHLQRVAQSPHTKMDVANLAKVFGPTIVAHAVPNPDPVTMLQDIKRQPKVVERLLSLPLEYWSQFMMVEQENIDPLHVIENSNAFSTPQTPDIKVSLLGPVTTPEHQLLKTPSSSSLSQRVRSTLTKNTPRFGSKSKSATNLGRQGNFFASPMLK

[14] = THP-1 cell cytotoxicity, dose response, cytotoxicity control for non-replicating M. tuberculosis project (AID 489025); type: functional
[15] = target: T5, Heat shock factor protein 1 (Mus musculus, UniProt P38532); assay: enhancement of HSF1-driven luciferase signal – cell-based, NIH3T3, luminescence, dose retest, confirmation (AID 435004); type: functional;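 note: stress induced by proteasome inhibitor MG132 added 30 min after compound; luciferase reporter driven by HSF1 response element in NIH3T3 cells; actives raise luminescence as potentiators of the MG132 stress response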
T5 sequence (P38532 whole entry): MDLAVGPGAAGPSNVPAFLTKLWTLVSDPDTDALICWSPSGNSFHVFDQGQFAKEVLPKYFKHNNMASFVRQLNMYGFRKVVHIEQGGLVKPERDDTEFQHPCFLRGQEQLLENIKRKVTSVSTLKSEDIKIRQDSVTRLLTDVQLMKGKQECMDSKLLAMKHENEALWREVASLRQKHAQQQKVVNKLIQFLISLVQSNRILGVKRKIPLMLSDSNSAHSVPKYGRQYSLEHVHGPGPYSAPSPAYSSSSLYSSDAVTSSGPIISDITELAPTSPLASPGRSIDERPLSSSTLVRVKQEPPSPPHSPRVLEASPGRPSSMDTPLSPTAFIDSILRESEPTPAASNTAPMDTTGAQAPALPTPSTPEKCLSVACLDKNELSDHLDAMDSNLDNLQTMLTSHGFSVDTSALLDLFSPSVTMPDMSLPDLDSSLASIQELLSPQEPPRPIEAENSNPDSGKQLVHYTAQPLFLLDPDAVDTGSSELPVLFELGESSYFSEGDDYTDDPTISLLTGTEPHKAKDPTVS

Cytochrome P450 2D6 = Cytochrome P450 2D6 (Homo sapiens, UniProt P10635);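 note: CYP2D6 member of a cytochrome P450 panel assay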
Chain of Cytochrome P450 2D6 (P10635 whole entry): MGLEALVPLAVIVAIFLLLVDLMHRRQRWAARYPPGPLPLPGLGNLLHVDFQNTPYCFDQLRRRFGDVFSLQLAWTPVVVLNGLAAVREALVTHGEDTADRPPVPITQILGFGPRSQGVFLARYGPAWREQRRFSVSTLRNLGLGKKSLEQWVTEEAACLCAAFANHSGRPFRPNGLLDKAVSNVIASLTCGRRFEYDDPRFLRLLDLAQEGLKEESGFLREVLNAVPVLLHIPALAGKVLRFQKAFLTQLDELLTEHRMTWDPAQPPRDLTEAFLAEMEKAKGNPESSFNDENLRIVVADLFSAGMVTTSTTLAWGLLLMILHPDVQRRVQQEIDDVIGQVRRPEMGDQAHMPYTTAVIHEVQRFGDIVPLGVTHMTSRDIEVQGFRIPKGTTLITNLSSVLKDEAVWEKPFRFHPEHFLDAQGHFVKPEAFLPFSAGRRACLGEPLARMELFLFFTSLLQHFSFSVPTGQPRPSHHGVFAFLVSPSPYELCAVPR

cells = type: functional

Chain of FAD-linked sulfhydryl oxidase ALR (P55789 whole entry): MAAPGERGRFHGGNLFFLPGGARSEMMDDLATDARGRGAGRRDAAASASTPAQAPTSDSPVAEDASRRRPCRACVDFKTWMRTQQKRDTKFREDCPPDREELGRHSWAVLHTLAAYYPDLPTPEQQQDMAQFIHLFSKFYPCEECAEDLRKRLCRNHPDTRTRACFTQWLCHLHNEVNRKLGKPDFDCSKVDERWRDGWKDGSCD

## Nc1ccc(-c2nc3ccccc3[nH]2)cc1
[1]
  AC50: 1.3 µM (active)

## CC1CCC(NC(=O)Cn2ncc3ccccc32)CC1 (stereo not given)
H4
  EC50: > 120 µM (not active)
[2]
  EC50: > 120 µM (not active)

## CC1CCN(c2nc3ccc(C(=O)NCCCN4CCCCC4C)cc3s2)CC1 (stereo not given)
Vero
  CC50: > 25 µM (active)

## O=C(Cn1cnc([N+](=O)[O-])n1)NCCc1ccccc1
[3]
  EC50: 537 nM (active)
[4]
  EC50: > 53 µM (inactive)
[5]
  EC50: > 60 µM (not active)
[6]
  IC50: > 47.1 µM (inactive)

## CN(C)CCNC=C(C(=O)Nc1ccc(Cl)cc1Cl)C(=O)Nc1ccc(Cl)cc1Cl
[7]
  IC50: > 20 µM (inactive)
[8]
  EC50: 26.4 µM (active)
[9]
  AC50: 6.84 µM (active)
[10]
  EC50: 2.71 µM (active)
Vero
  CC50: > 25 µM (active)
Streptococcus
  EC50: 6.32 µM (active)
Streptokinase A
  EC50: > 150 µM (not active)
[11]
  EC50: 17.2 µM (active)

## Cc1cccc(N2CCN(C(=O)C3CCN(S(=O)(=O)c4c(C)noc4C)CC3)CC2C)c1 (stereo not given)
[1]
  AC50: 10.6 µM (active)

## Nc1ccc(N2CCN(c3ccc(F)cc3)CC2)cc1
[12]
  EC50: 40.1 µM (active)
[1]
  AC50: 0.821 µM (active)
[13]
  IC50: 18.2 µM (active)

## Cc1ccc(CN2CCSc3ccc(C(=O)N4CCN(c5ncccn5)CC4)cc32)cc1
[4]
  EC50: > 53 µM (inactive)
[6]
  IC50: > 47.1 µM (inactive)

## CC(C)(C)c1csc(NC(=O)c2ccccc2O)n1
[14]
  CC50: 38.7 µM (active)

## O=C(CSc1nnc(-c2ccc(F)cc2)c2ccccc12)Nc1ccccc1
[15]
  EC50: 104 µM (active)

## CCOC(=O)c1sc(NC(=O)CCN2CCC(C)CC2)c(C(=O)OCC)c1C
[15]
  EC50: > 260 µM (inactive)

## O=C(CCC(=O)N1CCOc2ccccc21)NC1CCCCCC1
[4]
  EC50: > 53 µM (inactive)
[6]
  IC50: > 47.1 µM (inactive)

## Cc1ccc(C2(C)CC(C)(C)N(C(=O)CSc3nnc(C)s3)c3ccccc32)cc1 (stereo not given)
[4]
  EC50: > 53 µM (inactive)
[6]
  IC50: > 47.1 µM (inactive)

## COc1cc(/C=C/C(=O)N2C(=O)c3cccc(N)c3C2=O)cc(OC)c1OC
Vero
  CC50: 17.8 µM (active)
[15]
  EC50: 2.98 µM (active)

## CC(=O)N[C@H]1C[C@@H]1c1ccccc1
[4]
  EC50: > 53 µM (inactive)
[6]
  IC50: > 47.1 µM (inactive)

## Cc1cccc(N2CCN(C(=O)C3CCCN(S(=O)(=O)c4c[nH]cn4)C3)CC2C)c1 (stereo not given)
[1]
  AC50: 3.55 µM (active)

## CCn1c(=O)c(=O)[nH]c2cc(C(=O)NC(C)c3ccc(S(N)(=O)=O)cc3)ccc21 (stereo not given)
[1]
  AC50: 0.407 µM (active)

## COc1ccccc1-c1c(NC(=O)C(C)C)n(C)c2ccccc2c1=O
[4]
  EC50: > 53 µM (inactive)
[6]
  IC50: > 47.1 µM (inactive)

## Nc1ccc(Sc2cnn(-c3ccccc3)c(=O)c2Cl)cc1
Cytochrome P450 2D6
  AC50: 12.6 µM (inconclusive)
[15]
  EC50: > 260 µM (inactive)

## CC(C)c1ccc(NC2CCCN(C(=O)c3cnsn3)C2)cc1 (stereo not given)
[1]
  AC50: 4.8 µM (active)

## CC1(C(=O)OCC(=O)Nc2nnc(-c3ccccc3)o2)CC1(Cl)Cl (stereo not given)
cells
  IC50: 24.9 µM (active)
[14]
  CC50: > 40 µM (active)

## CN(c1ccccc1)c1nc(N)c([N+](=O)[O-])c(N2CCCCCC2)n1
[15]
  EC50: 27.7 µM (active)

## O=C(C[C@H]1C/C=C\C[C@@H](Cc2ccc(F)cc2)C(=O)O[C@H](c2ccccc2)CNC1=O)NCCO
[4]
  EC50: > 53 µM (inactive)
[6]
  IC50: > 47.1 µM (inactive)

## Cc1cccc(C(=O)Oc2ccc(/C=N/NC(=O)c3ccc(O)cc3)cc2)c1
[4]
  EC50: > 53 µM (inactive)
[6]
  IC50: > 47.1 µM (inactive)

## O=C(N/N=C/c1ccncc1)c1cccc(N/N=C/c2ccncc2)c1
[1]
  AC50: 6.02 µM (active)

## C/N=C1/S/C(=C\c2ccc(OCC(=O)OC)c(OC)c2)C(=O)N1C
cells
  IC50: 4.45 µM (active)
[14]
  CC50: > 40 µM (active)
